# US4973675A, “Hybrid nitrosoureidoanthracyclines having antitumor activity” (University of Tennessee Research Center, priority 1989, dated 1990)
# Where two headings read alike, the source gives them in different places.
# Tests used:
# [1] = tested on: human CEM leukemic lymphocytes; assay: Growth inhibition of human CEM leukemic lymphocyte suspension cultures, 48 h continuous drug exposure (ID50); type: cell-based; conditions: Homo sapiens, Lymphocyte
# Experimental: (§1) Culture and bioassay conditions were as described in Cancer Chemotherapy Pharmacology 20:277 (1987) "Comparative Effects of Adriamycin and DNA-nonbinding Analogues on DNA, RNA, and Protein Synthesis in Vitro", Israel et al., except that cell counts were determined by hemocytometer rather than by automated cell counting.
# [2] = tested on: plasmid PC15 supercoiled DNA; assay: DNA unwinding assay (interference with DNA topoisomerase I-mediated unwinding; drug-DNA intercalation); type: biochemical; conditions: for interference with topoisomerase I-mediated conversion of supercoiled DNA / intercalation: 4 concentrations, 125-fold range
# Excerpt: DNA unwinding assays were used to measure the ability of a test drug to interfere with DNA topoisomerase I-mediated unwinding of plasmid PC15 supercoiled DNA. DNA topoisomerase I controls the topology of double-stranded DNA and is itself not inhibited by DNA intercalating agents. Rather, intercalating agents cause distortion of the torsional angle between adjacent DNA strand components and thereby interfere with the ability of topoisomerase I to convert supercoiled DNA into relaxed forms. Accordingly, this assay is taken as the definitive test of drug-DNA intercalation.
# Drugs were tested at 4 concentrations over a 125-fold concentration range. […] These compounds are 2-chloroethylurea derivatives of daunorubicin and adriamycin, respectively (i.e. not nitrosoureas, but chemical intermediates from which the nitrosoureas were derived).
# [3] = tested on: murine L1210 leukemia cells; assay: Clonogenic assay with cultured murine L1210 leukemia cells, 1 h drug exposure (LD90); type: cell-based; conditions: Mus musculus, L1210; 1 hr drug exposure; read-out: L1210 LD90 (dose killing 90% of clonogens)
# Experimental: as §1
# +Dose killing 90% of clonogens, 1hr. drug exposure.
# [4] = Solubility in water or saline; type: physicochemical
# Experimental: Accordingly, the compounds are formulated for administration by dissolving the compound in a pharmaceutically acceptable non-toxic carrier which contains a surfactant. The present inventors employ a formulation of 10% Cremaphor EL (a polyhydroxylated castor oil derivative) available from BASF Chemicals, 10% ethanol and 80% aqueous media (sterile water or saline solution). That quantity of the compound desired for establishing an effective dose is dissolved in a 1:1 mixture of Cremaphor EL and ethanol. Thereafter, sufficient aqueous medium is added with stirring to develop a final formulation containing 80% aqueous medium. This formulation is administered parenterally.
# DNA topoisomerase II = assay: Drug-stimulated topoisomerase II-mediated DNA cleavage assay (end-labeled PMC41 DNA); type: biochemical; conditions: 625-fold concentration range
# Excerpt: FIGS. 5A and 5B are a photographic reproduction of the results of drug-stimulated topoisomerase II-mediated DNA cleavage assays performed on various compounds, including compounds of the present invention.
# DNA intercalation is a necessary but not a sufficient requirement for DNA topoisomerase II-mediated DNA cleavage. Accordingly, determination of drug-induced enzyme inhibition requires direct assay with isolated topoisomerase II. These assays involve determination of drug-enhanced topoisomerase II-mediated cleavage of PMC41 DNA appropriately end-labeled with [α-^32 P]dATP. As better seen in FIG. 5B, lane B, purified topoisomerase II, under the assay conditions, causes fragmentation of the DNA (background cleavage), as indicated by the radioautographic appearance of bands of cleaved DNA having differing mass values.
# calf thymus DNA = assay: Interstrand cross-link formation in isolated calf thymus DNA, ethidium bromide fluorescence assay; type: biochemical; conditions: 10 mM, 4 hours at 50° C.
# Experimental: To further assess the alkylation potential of AD 312, the ability of this agent to form interstrand cross-links in isolated calf thymus DNA was examined using an ethidium bromide fluorescence assay. […] In one set of experiments, DNA was exposed briefly to AD 312 (30 minutes at 50° C.) before being reisolated by precipitation with ethanol. […] Such continuing reaction reflects the presence in the DNA of long-lived precursors of crosslinks similar to what has been found for the classical antitumor chloroethylnitrosoureas. […] It appears, therefore, that AD 312 induces DNA interstrand crosslinks via an initial adduct at O^6 -guanine.
# [5] = CEM, 48 hr continuous drug exposure (Table 2), read-out: ID50 (the source's name)
smiles,measurement,setting,value
CCN(N=O)C(=O)N[C@H]1C[C@H](O[C@H]2C[C@](O)(C(=O)CO)Cc3c(O)c4c(c(O)c32)C(=O)c2c(OC)cccc2C4=O)O[C@@H](C)[C@H]1O [AD 345],IC50,"[1]; 48 h, read-out: ID50",610 nM
"COc1cccc2c1C(=O)c1c(O)c3c(c(O)c1C2=O)C[C@@](O)(C(=O)CO)C[C@@H]3O[C@H]1C[C@H](N)[C@@H](O)[C@H](C)O1 [Epirubicin, epirubicin, reference compound]",relative strength of drug-DNA intercalation (arbitrary scale),"[2]; 0 = no intercalation, 9 = very strong intercalation",7
same,IC90,[3],430 nM
same,IC50,"[1]; suspension culture, 48 hr continuous drug exposure (Table 3), read-out: CEM, ID50 (50% growth-inhibitory concentration)",30 nM
COc1cccc2c1C(=O)c1c(O)c3c(c(O)c1C2=O)C[C@@](O)(C(=O)CO)C[C@@H]3O[C@H]1C[C@@H]2NC(=O)O[C@@H]2[C@H](C)O1 [AD 363],IC50,[1]; [5],710 nM
COc1cccc2c1C(=O)c1c(O)c3c(c(O)c1C2=O)C[C@@](O)(C(=O)CO)C[C@@H]3O[C@H]1C[C@H](NC(=O)N(CCCl)N=O)[C@H](O)[C@H](C)O1 [AD 337],solubility,[4]; water or saline solution,essentially insoluble in water or saline solution
same,solubility,"[4]; water, of the order of, read-out: solubility in water",< 25 µg/mL
"COc1cccc2c1C(=O)c1c(O)c3c(c(O)c1C2=O)C[C@@](O)(C(=O)CO)C[C@@H]3O[C@H]1C[C@H](NC(=O)NCCCl)[C@H](O)[C@H](C)O1 [AD 346, 2-chloroethylureidoadriamycin]",interference with topoisomerase I-mediated conversion of supercoiled DNA / intercalation,[2],reasonably strong intercalators
same,enhancement of topoisomerase II-mediated DNA cleavage,DNA topoisomerase II,do not enhance topoisomerase II-mediated cleavage
same,IC50,[1]; [5],90 nM
CNC(=O)N[C@H]1C[C@H](O[C@H]2C[C@](O)(C(=O)CO)Cc3c(O)c4c(c(O)c32)C(=O)c2c(OC)cccc2C4=O)O[C@@H](C)[C@H]1O [AD 342],IC50,[1]; [5],2000 nM
COc1cccc2c1C(=O)c1c(O)c3c(c(O)c1C2=O)C[C@@](O)(C(C)=O)C[C@@H]3O[C@H]1C[C@H](NC(=O)Nc2cccc(C(F)(F)F)c2)[C@H](O)[C@H](C)O1 [AD 334],IC50,[1]; [5],830 nM
COc1cccc2c1C(=O)c1c(O)c3c(c(O)c1C2=O)C[C@@](O)(C(=O)CO)C[C@@H]3O[C@H]1C[C@H](NC(=O)Nc2ccccc2)[C@H](O)[C@H](C)O1 [AD 352],IC50,[1]; [5],400 nM
COc1cccc2c1C(=O)c1c(O)c3c(c(O)c1C2=O)C[C@@](O)(C(C)=O)C[C@@H]3O[C@H]1C[C@H](NC(=O)NC(C)C)[C@H](O)[C@H](C)O1 [AD 328],IC50,[1]; [5],> 1000 nM
CCCNC(=O)N[C@H]1C[C@H](O[C@H]2C[C@](O)(C(=O)CO)Cc3c(O)c4c(c(O)c32)C(=O)c2c(OC)cccc2C4=O)O[C@@H](C)[C@H]1O [AD 348],IC50,[1]; [5],770 nM
COc1cccc2c1C(=O)c1c(O)c3c(c(O)c1C2=O)C[C@@](O)(C(=O)CO)C[C@@H]3O[C@H]1C[C@H](NC(=O)Nc2ccc(F)cc2)[C@H](O)[C@H](C)O1 [AD 356],IC50,[1]; [5],1140 nM
CCNC(=O)N[C@H]1C[C@H](O[C@H]2C[C@](O)(C(C)=O)Cc3c(O)c4c(c(O)c32)C(=O)c2c(OC)cccc2C4=O)O[C@@H](C)[C@H]1O [AD 306],IC50,[1]; [5],> 1000 nM
COc1cccc2c1C(=O)c1c(O)c3c(c(O)c1C2=O)C[C@@](O)(C(C)=O)C[C@@H]3O[C@H]1C[C@H](NC(=O)Nc2ccc(F)cc2)[C@H](O)[C@H](C)O1 [AD 332],IC50,"[1]; 48 h, read-out: ID50",> 1000 nM
CCCN(N=O)C(=O)N[C@H]1C[C@H](O[C@H]2C[C@](O)(C(=O)CO)Cc3c(O)c4c(c(O)c32)C(=O)c2c(OC)cccc2C4=O)O[C@@H](C)[C@H]1O [AD 349],IC50,[1]; [5],430 nM
COc1cccc2c1C(=O)c1c(O)c3c(c(O)c1C2=O)C[C@@](O)(C(=O)CO)C[C@@H]3O[C@H]1C[C@H](NC(=O)N(C)N=O)[C@H](O)[C@H](C)O1 [AD 343],IC50,"[1]; 48 h, read-out: ID50",480 nM
COc1cccc2c1C(=O)c1c(O)c3c(c(O)c1C2=O)C[C@@](O)(C(C)=O)C[C@@H]3O[C@H]1C[C@@H]2NC(=O)O[C@@H]2[C@H](C)O1 [AD 362],IC50,[1]; [5],880 nM
CCOC(=O)NC(=S)N[C@H]1C[C@H](O[C@H]2C[C@](O)(C(C)=O)Cc3c(O)c4c(c(O)c32)C(=O)c2c(OC)cccc2C4=O)O[C@@H](C)[C@H]1O [AD 336],IC50,[1]; [5],600 nM
"COc1cccc2c1C(=O)c1c(O)c3c(c(O)c1C2=O)C[C@@](O)(C(C)=O)C[C@@H]3O[C@H]1C[C@H](NC(=O)NCCCl)[C@H](O)[C@H](C)O1 [AD 307, 2-chloroethylureidodaunorubicin]",interstrand crosslink formation,calf thymus DNA,appeared to produce no such effect
same,interference with topoisomerase I-mediated conversion of supercoiled DNA / intercalation,[2],reasonably strong intercalators
same,IC50,[1]; [5],300 nM
COc1ccc(NC(=O)N[C@H]2C[C@H](O[C@H]3C[C@](O)(C(C)=O)Cc4c(O)c5c(c(O)c43)C(=O)c3c(OC)cccc3C5=O)O[C@@H](C)[C@H]2O)cc1 [AD 330],IC50,[1]; [5],> 1000 nM
COc1cccc2c1C(=O)c1c(O)c3c(c(O)c1C2=O)C[C@@](O)(C(C)=O)C[C@@H]3O[C@H]1C[C@H](NC(=O)Nc2ccccc2)[C@H](O)[C@H](C)O1 [AD 309],IC50,[1]; [5],> 1000 nM
CCN(N=O)C(=O)N[C@H]1C[C@H](O[C@H]2C[C@](O)(C(C)=O)Cc3c(O)c4c(c(O)c32)C(=O)c2c(OC)cccc2C4=O)O[C@@H](C)[C@H]1O [AD 311],IC50,"[1]; 48 h, read-out: ID50",1500 nM
CCNC(=O)N[C@H]1C[C@H](O[C@H]2C[C@](O)(C(=O)CO)Cc3c(O)c4c(c(O)c32)C(=O)c2c(OC)cccc2C4=O)O[C@@H](C)[C@H]1O [AD 344],IC50,"[1]; 48 h, read-out: ID50",580 nM
COc1cccc2c1C(=O)c1c(O)c3c(c(O)c1C2=O)C[C@@](O)(C(C)=O)C[C@@H]3O[C@H]1C[C@H](NC(=O)N(C)N=O)[C@H](O)[C@H](C)O1 [AD 310],IC50,[1]; [5],1400 nM
"COc1cccc2c1C(=O)c1c(O)c3c(c(O)c1C2=O)C[C@@](O)(C(=O)CO)C[C@@H]3O[C@H]1C[C@H](NC(=O)NCCCl)[C@@H](O)[C@H](C)O1 [AD 391, 2-chloroethylureidoepirubicin]",interference with topoisomerase I-mediated conversion of supercoiled DNA / intercalation,[2],strong intercalators
same,enhancement of topoisomerase II-mediated DNA cleavage,DNA topoisomerase II,do not enhance topoisomerase II-mediated cleavage
same,IC50,[1]; [5],80 nM
CCCN(N=O)C(=O)N[C@H]1C[C@H](O[C@H]2C[C@](O)(C(C)=O)Cc3c(O)c4c(c(O)c32)C(=O)c2c(OC)cccc2C4=O)O[C@@H](C)[C@H]1O [AD 313],IC50,[1]; [5],> 1000 nM
COc1ccc(NC(=O)N[C@H]2C[C@H](O[C@H]3C[C@](O)(C(=O)CO)Cc4c(O)c5c(c(O)c43)C(=O)c3c(OC)cccc3C5=O)O[C@@H](C)[C@H]2O)cc1 [AD 354],IC50,[1]; [5],710 nM
CNC(=O)N[C@H]1C[C@H](O[C@H]2C[C@](O)(C(C)=O)Cc3c(O)c4c(c(O)c32)C(=O)c2c(OC)cccc2C4=O)O[C@@H](C)[C@H]1O [AD 305],IC50,[1]; [5],2300 nM
CCCNC(=O)N[C@H]1C[C@H](O[C@H]2C[C@](O)(C(C)=O)Cc3c(O)c4c(c(O)c32)C(=O)c2c(OC)cccc2C4=O)O[C@@H](C)[C@H]1O [AD 308],IC50,[1]; [5],> 5000 nM
COc1cccc2c1C(=O)c1c(O)c3c(c(O)c1C2=O)C[C@@](O)(C(=O)CO)C[C@@H]3O[C@H]1C[C@H](NC(=O)NC(C)C)[C@H](O)[C@H](C)O1 [AD 350],IC50,[1]; [5],720 nM
CCOC(=O)NC(=S)N[C@H]1C[C@H](O[C@H]2C[C@](O)(C(=O)CO)Cc3c(O)c4c(c(O)c32)C(=O)c2c(OC)cccc2C4=O)O[C@@H](C)[C@H]1O [AD 360],IC50,[1]; [5],360 nM
